Measurements from US9062095B2, “Mutant double cyclized receptor peptides inhibiting β1-adrenoceptor antibodies” (JULIUS-MAXIMILIANS-UNIVERSTITAT-WURZBURG, priority 2007, dated 2015).
Positions of bridges follow the written chain, without caps; N, C: chain ends.

Assays:
[1] = system: beta1-ECII receptor antibody-titers; assay: in vivo therapy study cyc22AA versus cyc18AA Cys/Ser in rats immunized over 8 months: antibody-titers; design: species or system rat; settings: injections every 4 weeks, start at month 8; mean ±SEM (FIG. 28A)
From the text: FIGS. 28A and B depict the in vivo blocking (=neutralization) capacity of two cysteine-containing 18AA or 22AA cyclopeptide-mutants of the second extracellular loop (ECII) of the human beta1-adrenergic receptor upon therapeutic injection of the different constructs into rats regularly immunized since 8 months (first=basic immunization followed by 7 antigen-boosts every 4 weeks). The effects of four to five subsequent cyclopeptide-injections every 4 weeks are shown. FIG. 28A depicts the mean values±SEM of each of the treated groups of immunized beta1-ECII-antibody positive cardiomyopathic rats (animal number per group is given in the legend). […] The remaining receptor antibody-titers after each injection in % of the antibody-titers at start therapy (month 8) are depicted (columns). Error bars indicate ±SEM. Numbers in columns indicate the number of (subsequent) monthly injection.
FIG. 28B depicts the time course of antibody-titers after 4 subsequent cyclopeptide-injections, determined before and 20-22 hours after application of the indicated constructs. Values are given in percent of increase or decrease in the respective antibody-titers after each cyclopeptide-injection compared with the antibody-titer determined at start of therapy (month 8). […]

[2] = system: immunized beta1-ECII-antibody positive cardiomyopathic rats; assay: echocardiographic follow-up of the cyc22AA versus cyc18AA therapy study; format: in vivo, rat; settings: after 4 months of treatment, 1.0 mg/kg Bw (FIG. 29)
From the text: FIG. 29A is a diagram showing the time course (month 0 to 12) of the internal end-systolic and end-diastolic left ventricular diameters (LVES, LVED) of GST/beta1-ECII-immunized untreated (black circles) versus GST/beta1-ECII-immunized animals treated with the indicated various cyclopeptides (see legend) as determined by 2D- and M-mode echocardiography (echocardiographic system: Visual Sonics, Vevo 770 (version V2.2.3), equipped with a 15-17.5 MHz transducer), whereby LVES/LVED is left ventricular end-systolic diameter/left ventricular end-diastolic diameter.
FIG. 29B is a diagram depicting the time course (month 0 to 12) of the “Cardiac index” (CI) in ml/min/g (body weight) as determined by 2D- and Doppler-echocardiography (echocardiographic system see above).
In addition, echocardiographic follow-up data after 4 months of treatment also show a superiority of cyc22AA mutants compared with the cyc18AA Cys/Ser mutant regarding their cardioprotective effects in vivo, as assessed by the decrease in both left ventricular end-diastolic (LVED) and end-systolic (LVES) diameters (FIG. 29A), and an increase in “Cardiac Index” (CI, given in ml/min/g body weight; see FIG. 29B), as determined by 2 dimensional- and Doppler-echocardiography using a Visual Sonics echocardiographic system (Vevo 770, version V2.2.3), equipped with a 17.5 MHz transducer).

anti-β1-ECII antibodies = assay: ELISA-competition assay: peptide preincubated with sera/IgG of immunized antibody-positive rats, linear 25AA Cys/Cys-peptide as antigen; format: binding, rat; settings: n=6 sera; incubation 12-14 h, 4° C.; mean ±SEM (FIG. 27)
Protocol: FIG. 9 is a diagram composed of two major-(upper and lower) panels resuming the blocking effect of both 25AA- and 18AA-cyclopeptide mutants having a Gln closure site, as well as 18AA cyclopeptide mutants having a D-Glu closure site after preincubation (12 h, 4° C., rotating incubation) with sera isolated from 69 different immunized antibody-positive rats in an ELISA-competition assay using the 3 Cys-containing linear 25AA Cys/Cys-peptide as an antigen. The upper panel depicts rat sera preferentially reacting with the Cys/Ser mutated cyclopeptides (type1 reaction, n=64), separated in cyc25AA(Gln)-peptides (left) and cyc18AA(Gln and D-Glu)-peptides (right). The lower panel depicts the rat sera reacting with both the Cys/Ser and the Ser/Cys mutated cyclopeptides (type2 reaction, n=5), again separated in the results obtained with cyc25AA(Gln)-peptides (left) and cyc18AA(Gln and D-Glu)-peptides (right).
FIG. 11 is a diagram resuming the dose-dependent (x-axis, abscissa: fold molar excess of specific peptides) blocking capacity of various linear and cyclic beta1-ECII-peptides given in % of the unblocked antibody-titer (y-axis, ordinate), including 25AA Cys/Cys linear peptides (black squares), 25AA Cys/Ser cyclopeptide mutants (white squares), 18AA Cys/Cys cyclo-peptides (black diamonds), 18AA Cys/Ser cyclopeptide mutants (white diamonds), and 18AA Cys/Ser linear peptide mutants (vertically hatched diamonds) in an ELISA competition assay performed with sera from n=6 randomly chosen immunized antibody-positive rats.
FIGS. 27A and B depict the in vitro blocking (=neutralization) capacity of various cysteine-containing cyclopeptide variants of the second extracellular loop (ECII) of the human beta1-adrenergic receptor, determined by testing n=6 individual sera (27A) of immunized beta1-ECII-antibody-positive rats after over-night incubation with the indicated cyclopeptides (12-14 h, 4° C.) by ELISA. Columns in 27A represent the receptor-antibody blocking efficiency of the indicated cyclopeptides in % of the antibody-(ELISA-)signals obtained with unblocked antibody-positive rat sera. Columns in 27B represent the mean blocking efficiency for each cyclopeptide, error bars indicate ±SEM.
The blocking capacity of β1-ECII-18AA cyclopeptide mutants (Cys13-Ser14 or Ser13-Cys14 mutation having an additional D-Glu-Gln exchange, e.g. at the ring closure site) was compared with the 3 Cys-containing 25AA or 18AA Cys/Cys cyclopeptides after preincubation (12 h, 4° C., rotating incubation over-night) of different numbers of sera from immunized antibody-positive rats in an ELISA-competition assay using the 3 Cys-containing linear 25AA Cys/Cys-peptide as an antigen. FIGS. 4, 5, and 7-10 show the results from measurements performed with sera of n=12 up to n=82 immunized antibody-positive rats using different cyclopeptides of the present invention.

## Cyclo-Arg-Ala-Glu-Ser-Asp-Glu-Ala-Arg-Arg-Cys-Tyr-Asn-Asp-Pro-Lys-Cys-Ser-Asp-Phe-Val-Thr-Gly (cyclo(RAESDEARRCYNDPKCSDFVTG); disulfide 10-16 (inferred)) [cyc22AA Cys/Ser]
[1]
  antibody-titer remaining after 4 injections in percent of the titer at start of therapy: 9.0±2.2%
[2]
  cardioprotective effects in vivo (decrease in LVED and LVES diameters, increase in Cardiac Index): superiority
anti-β1-ECII antibodies
  blocking-efficiency versus unblocked sera: 74.9±5.0%
